Experimental data as given in ChEMBL document CHEMBL5505992, “Novel membrane-targeting isoxanthohumol-amine conjugates for combating methicillin-resistant Staphylococcus aureus (MRSA) infections” (Eur J Med Chem, 2024).
Converted amounts (≈) assume the structure as drawn.

Key:
Staphylococcus aureus [1] = experiment: Antibacterial activity against Staphylococcus aureus ATCC 29213 measured after 16 to 18 hrs by CLSI method; format: functional; conditions: time 16-18 hrs
Staphylococcus aureus [2] = experiment: Antibacterial activity against methicillin-resistant Staphylococcus aureus clinical isolate MRSA-22 measured after 16 to 18 hrs by CLSI method; format: functional; conditions: time 16-18 hrs
Staphylococcus aureus [3] = experiment: Antibacterial activity against methicillin-resistant Staphylococcus aureus clinical isolate MRSA-16 measured after 16 to 18 hrs by CLSI method; format: functional; conditions: time 16-18 hrs
Staphylococcus aureus [4] = experiment: Antibacterial activity against methicillin-resistant Staphylococcus aureus clinical isolate MRSA-11 measured after 16 to 18 hrs by CLSI method; format: functional; conditions: time 16-18 hrs
[5] = Hemolytic activity in sheep erythrocytes incubated for 1 hr by absorbance based analysis; format: toxicity, cell-based, Ovis aries, Erythrocyte
Escherichia coli = experiment: Antibacterial activity against Escherichia coli ATCC25922 measured after 16 to 18 hrs by CLSI method; format: functional; conditions: time 16-18 hrs
Staphylococcus aureus [6] = experiment: Antibacterial activity against methicillin-resistant Staphylococcus aureus clinical isolate MRSA-23 measured after 16 to 18 hrs by CLSI method; format: functional; conditions: time 16-18 hrs
Staphylococcus aureus [7] = experiment: Antibacterial activity against methicillin-resistant Staphylococcus aureus clinical isolate MRSA-20 measured after 16 to 18 hrs by CLSI method; format: functional; conditions: time 16-18 hrs
Staphylococcus aureus [8] = experiment: Antibacterial activity against methicillin-resistant Staphylococcus aureus clinical isolate MRSA-17 measured after 16 to 18 hrs by CLSI method; format: functional; conditions: time 16-18 hrs
Staphylococcus aureus [9] = experiment: Antibacterial activity against methicillin-resistant Staphylococcus aureus clinical isolate MRSA-18 measured after 16 to 18 hrs by CLSI method; format: functional; conditions: time 16-18 hrs
[10] = Selectivity index, ratio of HC50 for hemolytic activity in sheep erythrocytes to MIC for antibacterial activity against Staphylococcus aureus ATCC 29213; format: toxicity, cell-based; conditions: read-out: Selectivity Index
Staphylococcus aureus [11] = experiment: Antibacterial activity against methicillin-resistant Staphylococcus aureus clinical isolate MRSA-13 measured after 16 to 18 hrs by CLSI method; format: functional; conditions: time 16-18 hrs
Staphylococcus aureus [12] = experiment: Antibacterial activity against methicillin-resistant Staphylococcus aureus clinical isolate MRSA-14 measured after 16 to 18 hrs by CLSI method; format: functional; conditions: time 16-18 hrs
Staphylococcus aureus [13] = experiment: Antibacterial activity against methicillin-resistant Staphylococcus aureus clinical isolate MRSA-21 measured after 16 to 18 hrs by CLSI method; format: functional; conditions: time 16-18 hrs

Structure (SMILES) | MIC (Staphylococcus aureus [1]) [µg/mL] | MIC (Staphylococcus aureus [2]) [µg/mL] | MIC (Staphylococcus aureus [3]) [µg/mL] | MIC (Staphylococcus aureus [4]) [µg/mL] | HC50 at 1 h [5] [µg/mL] | MIC (Escherichia coli) [µg/mL] | MIC (Staphylococcus aureus [6]) [µg/mL] | MIC (Staphylococcus aureus [7]) [µg/mL] | MIC (Staphylococcus aureus [8]) [µg/mL] | MIC (Staphylococcus aureus [9]) [µg/mL] | selectivity ratio [10] | MIC (Staphylococcus aureus [11]) [µg/mL] | MIC (Staphylococcus aureus [12]) [µg/mL] | MIC (Staphylococcus aureus [13]) [µg/mL]
CCCN(CCC)CCCCCOc1ccc(C2CC(=O)c3c(OC)cc(OCCCCCN(CCC)CCC)c(CC=C(C)C)c3O2)cc1 (stereo not drawn) | 8 (≈ 11.5 µM) | 8 (≈ 11.5 µM) | 8 (≈ 11.5 µM) | 8 (≈ 11.5 µM) | 331 | > 128 | 16 (≈ 23.1 µM) | 8 (≈ 11.5 µM) | 8 (≈ 11.5 µM) | 16 (≈ 23.1 µM) | 41.4 | 8 (≈ 11.5 µM) | 8 (≈ 11.5 µM) | 8 (≈ 11.5 µM)
COc1cc(OCCCCCN2CCCC(C)C2)c(CC=C(C)C)c2c1C(=O)CC(c1ccc(OCCCCCN3CCCC(C)C3)cc1)O2 (stereo not drawn) | 16 (≈ 23.2 µM) | 8 (≈ 11.6 µM) | 8 (≈ 11.6 µM) | 8 (≈ 11.6 µM) | 211 | > 128 | 8 (≈ 11.6 µM) | 8 (≈ 11.6 µM) | 8 (≈ 11.6 µM) | 8 (≈ 11.6 µM) | 13.2 | 8 (≈ 11.6 µM) | 8 (≈ 11.6 µM) | 4 (≈ 5.81 µM)
COc1cc(OCCCCN2CCOCC2)c(CC=C(C)C)c2c1C(=O)CC(c1ccc(OCCCCN3CCOCC3)cc1)O2 (stereo not drawn) | 32 (≈ 50.2 µM) | 32 (≈ 50.2 µM) | > 128 | 64 (≈ 100 µM) | > 640 | > 128 | 32 (≈ 50.2 µM) | 32 (≈ 50.2 µM) | 32 (≈ 50.2 µM) | 32 (≈ 50.2 µM) | > 20 | 64 (≈ 100 µM) | 64 (≈ 100 µM) | 64 (≈ 100 µM)
COc1cc(O)c(CC=C(C)C)c2c1C(=O)CC(c1ccc(O)cc1)O2 (stereo not drawn) [ISOXANTHOHUMOL] | > 64 | 64 (≈ 181 µM) | 64 (≈ 181 µM) | 64 (≈ 181 µM) | > 320 | > 64 | 64 (≈ 181 µM) | 64 (≈ 181 µM) | > 64 | > 64 | – | > 64 | > 64 | 64 (≈ 181 µM)
COc1cc(OCCCCN2CCSCC2)c(CC=C(C)C)c2c1C(=O)CC(c1ccc(OCCCCN3CCSCC3)cc1)O2 (stereo not drawn) | 64 (≈ 95.7 µM) | > 128 | > 128 | > 128 | > 640 | > 128 | > 128 | > 128 | > 128 | > 128 | > 10 | > 128 | > 128 | > 128
CCCN(CCC)CCCCOc1ccc(C2CC(=O)c3c(OC)cc(OCCCCN(CCC)CCC)c(CC=C(C)C)c3O2)cc1 (stereo not drawn) | 16 (≈ 24.1 µM) | 16 (≈ 24.1 µM) | 16 (≈ 24.1 µM) | 16 (≈ 24.1 µM) | > 1280 | > 128 | 16 (≈ 24.1 µM) | 16 (≈ 24.1 µM) | 16 (≈ 24.1 µM) | 32 (≈ 48.1 µM) | > 80 | 16 (≈ 24.1 µM) | 16 (≈ 24.1 µM) | 16 (≈ 24.1 µM)
CCCCN(CCCC)CCCCCOc1ccc(C2CC(=O)c3c(OC)cc(OCCCCCN(CCCC)CCCC)c(CC=C(C)C)c3O2)cc1 (stereo not drawn) | 4 (≈ 5.34 µM) | 8 (≈ 10.7 µM) | 4 (≈ 5.34 µM) | 8 (≈ 10.7 µM) | 980 | > 128 | 8 (≈ 10.7 µM) | 4 (≈ 5.34 µM) | 4 (≈ 5.34 µM) | 8 (≈ 10.7 µM) | 245 | 4 (≈ 5.34 µM) | 4 (≈ 5.34 µM) | 8 (≈ 10.7 µM)
COc1cc(OCCCN2CCC(C)CC2)c(CC=C(C)C)c2c1C(=O)CC(c1ccc(OCCCN3CCC(C)CC3)cc1)O2 (stereo not drawn) | 16 (≈ 25.3 µM) | 16 (≈ 25.3 µM) | 16 (≈ 25.3 µM) | 16 (≈ 25.3 µM) | > 1280 | > 128 | 32 (≈ 50.6 µM) | 16 (≈ 25.3 µM) | 16 (≈ 25.3 µM) | 16 (≈ 25.3 µM) | > 80 | 16 (≈ 25.3 µM) | 16 (≈ 25.3 µM) | 16 (≈ 25.3 µM)
C[C@@H](O)[C@H]1C(=O)N2C(C(=O)O)=C(S[C@@H]3CN[C@H](C(=O)N(C)C)C3)[C@H](C)[C@H]12 [MEROPENEM] | – | – | – | – | – | 0.062 (≈ 0.162 µM) | – | – | – | – | – | – | – | –
COc1cc(OCCCN(CC(C)C)CC(C)C)c(CC=C(C)C)c2c1C(=O)CC(c1ccc(OCCCN(CC(C)C)CC(C)C)cc1)O2 (stereo not drawn) | > 128 | 32 (≈ 46.2 µM) | > 128 | 64 (≈ 92.3 µM) | > 1280 | > 128 | 32 (≈ 46.2 µM) | > 128 | > 128 | > 128 | – | > 128 | 64 (≈ 92.3 µM) | 32 (≈ 46.2 µM)
COc1cc(OCCCN2CCOCC2)c(CC=C(C)C)c2c1C(=O)CC(c1ccc(OCCCN3CCOCC3)cc1)O2 (stereo not drawn) | > 128 | > 128 | > 128 | > 128 | > 1280 | > 128 | > 128 | > 128 | > 128 | > 128 | – | > 128 | > 128 | > 128
